{"source": "patent EP0073100B1", "about": "“Beta-lactam compounds, their preparation and their use” (BEECHAM GROUP PLC, priority 1981, dated 1983)", "assay_in_all_cases": "MIC, growth inhibition in nutrient broth", "assay_type_in_all_cases": "cell-based", "key": {"[1]": {"tested_on": "Proteus mirabilis"}, "[2]": {"tested_on": "E. coli", "conditions": "Escherichia coli"}, "[3]": {"tested_on": "Strep. pyogenes", "conditions": "Streptococcus pyogenes"}, "[4]": {"tested_on": "Staph. aureus Oxford", "conditions": "Staphylococcus aureus"}, "[5]": {"tested_on": "Strep. faecalis", "conditions": "Enterococcus faecalis"}, "[6]": {"tested_on": "S. typhimurium", "conditions": "Salmonella enterica"}, "[7]": {"tested_on": "B. subtilis", "conditions": "Bacillus subtilis"}, "[8]": {"tested_on": "Staph. aureus Russell", "conditions": "Staphylococcus aureus, Staph. aureus Russell (β-lactamase-producing benylpenicillin-resistant strain)"}, "[9]": {"tested_on": "Klebsiella aerogenes"}}, "data": [{"smiles": "COC(=O)C1C[C@@H]2[C@H](NC(=O)COc3ccccc3)C(=O)N2[C@H]1C(=O)O", "note": "(mixture of isomers) [compound 17, (2RS, 5RS, 6SR) 1-Aza-3-methoxycarbonyl-6-phenoxyacetamidobicyclo [3.2.0] -heptan-7-one-2-carboxylic acid]", "values": [{"measurement": "MIC", "setting": "[1]", "result": 62, "unit": "µg/mL"}, {"measurement": "MIC", "setting": "[2]", "result": 250, "unit": "µg/mL"}, {"measurement": "MIC", "setting": "[3]", "result": "< 10.5", "unit": "µg/mL"}, {"measurement": "MIC", "setting": "[4]", "result": "< 0.5", "unit": "µg/mL"}, {"measurement": "MIC", "setting": "[5]", "result": 8, "unit": "µg/mL"}, {"measurement": "MIC", "setting": "[6]", "result": 250, "unit": "µg/mL"}, {"measurement": "MIC", "setting": "[7]", "result": 2, "unit": "µg/mL"}, {"measurement": "MIC", "setting": "[8]", "result": 62, "unit": "µg/mL"}, {"measurement": "MIC", "setting": "[9]", "result": 250, "unit": "µg/mL"}]}]}
